Legend:
IRAK-M [1] = molecular target: T1, IRAK-M (Homo sapiens, UniProt Q9Y616); assay: IRAK-M binding inhibitory activity (KINOMEscan active site-dependent competitive assay); design: purchased Eurofins Discover X; settings: concentration of the test compound 1 μM; first symbol of cell; read-out: IRAK-M binding inhibition activity % Ctrl
T1 sequence (Q9Y616 1-596): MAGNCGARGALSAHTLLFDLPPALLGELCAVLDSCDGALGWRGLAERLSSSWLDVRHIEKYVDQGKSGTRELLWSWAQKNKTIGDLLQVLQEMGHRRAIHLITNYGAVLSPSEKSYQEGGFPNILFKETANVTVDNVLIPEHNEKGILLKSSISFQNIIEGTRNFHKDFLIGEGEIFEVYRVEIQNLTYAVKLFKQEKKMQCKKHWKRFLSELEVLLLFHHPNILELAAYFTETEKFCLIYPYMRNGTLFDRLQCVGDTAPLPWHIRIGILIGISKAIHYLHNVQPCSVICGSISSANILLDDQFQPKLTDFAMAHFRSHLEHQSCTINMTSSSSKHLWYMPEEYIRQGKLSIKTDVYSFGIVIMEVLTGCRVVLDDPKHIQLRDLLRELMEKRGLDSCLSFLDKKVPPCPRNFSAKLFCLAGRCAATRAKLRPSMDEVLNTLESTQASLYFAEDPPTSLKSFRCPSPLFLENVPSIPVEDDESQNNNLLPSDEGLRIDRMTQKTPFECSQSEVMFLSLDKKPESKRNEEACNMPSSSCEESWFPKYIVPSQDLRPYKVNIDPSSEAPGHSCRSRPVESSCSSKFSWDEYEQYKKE
Summary of the method: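 Active site-dependent competition binding assay (KINOMEscan) against human IRAK-M. Result expressed as % Ctrl = (compound signal − positive control signal)/(DMSO signal − positive control signal) × 100, where DMSO = 100% Ctrl and control compound = 0% Ctrl.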

IRAK-M [2] = molecular target: T1, IRAK-M; assay: In vitro degradation activity of target protein (IRAK-M ELISA in THP1 cells); format: cell-based; design: host or cells: THP1 cells; settings: 24 hours, second symbol of cell, read-out: IRAK-M 50% degradation concentration (DC50 value)
Method: In vitro degradation activities of target protein of the example compounds were evaluated using Enzyme-linked immuno-sorbent assay (ELISA) by the following assay steps. THP1 cells (ATCC, TIB-202) were cultured in RPMI-1640 supplemented with 10% FBS, lx sodium pyruvate, lx HEPES, D-(+)-glucose and 1% penicillin/streptomycin. THP1 cells were seeded at a density of 1×10^6 cells/well in 24-well plate and treated with DMSO control or test compound, and then incubated for 24 hours. The cells were collected and lysed on ice for 30 minutes in lysis buffer (PBS containing 0.1% Triton X-100) containing a protease inhibitor cocktail (Roche, Cat #11836170001). The lysates were sonicated for 30 sec ON/30 sec OFF for ten cycles and centrifuged for 10 minutes at 13k rpm at 4° C. Protein concentrations were determined by the BCA assay (Sigma, Cat #QPBCA-1KT). The ELISA assay was performed using the Human IRAK3/IRAKM/IRAK-M ELISA Kit (LifeSpan BioSciences, Cat #LS-F35271), and the protein levels of IRAK-M were evaluated according to the kit protocol. As to the IRAK-M degradation rate of test compounds, protein degradation rate (%) when the concentration of the test compound is […] described as A≥75%, 50%≤B<75%, 25%≤C<50%, D<25%, or 50% degradation concentration (DC50 value) described as A<0.03 μM, 0.03 μM≤B<0.1 μM, 0.1 μM≤C<0.3 μM, 0.3 μM≤D<1 μM, is shown in the table below.

[3] = molecular target: T2, human XIAP_BIR3 domain purified protein (Homo sapiens, UniProt P98170); assay: XIAP binding inhibitory activity (HTRF, b-Smac ligand); settings: second symbol of cell; read-out: XIAP binding inhibition IC50 value
T2 construct: purchased R & D
Summary of the method: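 HTRF competition between compound and C-terminally biotinylated Smac peptide AVPIAQK for His-tagged XIAP BIR3, both diluted to 90 nM before addition, in pH 7.5 HEPES/NaCl/BSA/Triton buffer. Eu-cryptate anti-His and streptavidin-XL665 added, ≥4 h at room temperature in the dark; inhibition % from 665/615 nm ratio versus no-compound wells.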

T2 sequence (P98170 252-356 limits assumed): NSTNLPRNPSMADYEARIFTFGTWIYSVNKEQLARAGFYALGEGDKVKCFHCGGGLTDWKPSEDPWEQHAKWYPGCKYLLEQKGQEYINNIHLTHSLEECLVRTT

| SMILES | remaining binding at 1 µM (IRAK-M [1]) [%] | DC50 (IRAK-M [2]) [nM] | IC50 [3] [µM] |
| --- | --- | --- | --- |
| CN[C@@H](C)C(=O)N[C@H](C(=O)N1CCN(C(=O)c2cc3cc(F)c(F)cc3n2CCOCCOCCOCCOc2cc(CN3CCC(Oc4ccnc5ccsc45)CC3)on2)CC1)C1CCCCC1 [Example 29, (S)-N-((S)-1-cyclohexyl-2-(4-(5,6-difluoro-1-(2-(2-(2-(2-((5-((4-(thieno[3,2-b]pyridin-7-yloxy)piperidin-1-yl)methyl)isoxazol-3-yl)oxy)ethoxy)ethoxy)ethoxy)ethyl)-1H-indole-2-carbonyl)piperazin-1-yl)-2-oxoethyl)-2-(methylamino)propanamide] | < 25 | 300 to 1000 | 3 to 30 |
| CN[C@@H](C)C(=O)N[C@H](C(=O)N1CCN(C(=O)c2c(Cl)c3ccccc3n2CC(=O)N(C)CCOCCOCCOCCOc2cc(CN3CCC(Oc4ccnc5ccsc45)CC3)on2)CC1)C1CCCCC1 [Example 32, (S)-N-((S)-2-(4-(3-chloro-1-(3-methyl-2-oxo-14-((5-((4-(thieno[3,2-b]pyridin-7-yloxy)piperidin-1-yl)methyl)isoxazol-3-yl)oxy)-6,9,12-trioxa-3-azatetradecyl)-1H-indole-2-carbonyl)piperazin-1-yl)-1-cyclohexyl-2-oxoethyl)-2-(methylamino)propanamide] | < 25 | 300 to 1000 | 3 to 30 |
| CN[C@@H](C)C(=O)N[C@H](C(=O)N1CCN(C(=O)c2c(Cl)c3cc(F)ccc3n2CC(=O)N(C)CCOCCOCCOCCOc2cc(CN3CCC(Oc4ccnc5ccsc45)CC3)on2)CC1)C1CCCCC1 [Example 34, (S)-N-((S)-2-(4-(3-chloro-5-fluoro-1-(3-methyl-2-oxo-14-((5-((4-(thieno[3,2-b]pyridin-7-yloxy)piperidin-1-yl)methyl)isoxazol-3-yl)oxy)-6,9,12-trioxa-3-azatetradecyl)-1H-indole-2-carbonyl)piperazin-1-yl)-1-cyclohexyl-2-oxoethyl)-2-(methylamino)propanamide] | 25 to 50 | 300 to 1000 | 3 to 30 |
| CN[C@@H](C)C(=O)N[C@H](C(=O)N1CCN(C(=O)c2c(C)c3ccccc3n2CC(=O)N(C)CCOCCOCCOCCOc2cc(CN3CCC(Oc4ccnc5ccsc45)CC3)on2)CC1)C1CCCCC1 [Example 35, (S)-N-((S)-1-cyclohexyl-2-(4-(3-methyl-1-(3-methyl-2-oxo-14-((5-((4-(thieno[3,2-b]pyridin-7-yloxy)piperidin-1-yl)methyl)isoxazol-3-yl)oxy)-6,9,12-trioxa-3-azatetradecyl)-1H-indole-2-carbonyl)piperazin-1-yl)-2-oxoethyl)-2-(methylamino)propanamide] | 25 to 50 | 300 to 1000 | 3 to 30 |
| CN[C@@H](C)C(=O)N[C@H](C(=O)N1CCN(C(=O)c2c(C)c3cc(F)ccc3n2CC(=O)N2CCC[C@H]2COc2cc(CN3CCC(Oc4ccnc5ccsc45)CC3)on2)CC1)C1CCCCC1 [Example 39, (S)-N-((S)-1-cyclohexyl-2-(4-(5-fluoro-3-methyl-1-(2-oxo-2-((S)-2-(((5-((4-(thieno[3,2-b]pyridin-7-yloxy)piperidin-1-yl)methyl)isoxazol-3-yl)oxy)methyl)pyrrolidin-1-yl)ethyl)-1H-indole-2-carbonyl)piperazin-1-yl)-2-oxoethyl)-2-(methylamino)propanamide] | 25 to 50 | 100 to 300 | 3 to 30 |
| CN[C@@H](C)C(=O)N[C@H](C(=O)N1CCN(C(=O)c2c(F)c3cc(F)ccc3n2CC(=O)N2CCC[C@H]2COc2cc(CN3CCC(Oc4ccnc5ccsc45)CC3)on2)CC1)C1CCCCC1 [Example 41, (S)-N-((S)-1-cyclohexyl-2-(4-(3,5-difluoro-1-(2-oxo-2-((S)-2-(((5-((4-(thieno[3,2-b]pyridin-7-yloxy)piperidin-1-yl)methyl)isoxazol-3-yl)oxy)methyl)pyrrolidin-1-yl)ethyl)-1H-indole-2-carbonyl)piperazin-1-yl)-2-oxoethyl)-2-(methylamino)propanamide] | 25 to 50 | 100 to 300 | 3 to 30 |

Continued, values first:

| remaining binding at 1 µM (IRAK-M [1]) [%] | DC50 (IRAK-M [2]) [nM] | IC50 [3] [µM] | SMILES |
| --- | --- | --- | --- |
| < 25 | 300 to 1000 | 3 to 30 | CN[C@@H](C)C(=O)N[C@H](C(=O)N1CCN(C(=O)c2c(C)c3cc(F)ccc3n2CC(=O)N(C)CCOCCOCCOCCOc2cc(CN3CCC(Oc4ccnc5ccsc45)CC3)on2)CC1)C1CCCCC1 [Example 33, (S)-N-((S)-1-cyclohexyl-2-(4-(5-fluoro-3-methyl-1-(3-methyl-2-oxo-14-((5-((4-(thieno[3,2-b]pyridin-7-yloxy)piperidin-1-yl)methyl)isoxazol-3-yl)oxy)-6,9,12-trioxa-3-azatetradecyl)-1H-indole-2-carbonyl)piperazin-1-yl)-2-oxoethyl)-2-(methylamino)propanamide] |
| 25 to 50 | 300 to 1000 | 3 to 30 | CN[C@@H](C)C(=O)N[C@H](C(=O)N1CCN(C(=O)c2c(F)c3cc(F)ccc3n2CC(=O)N(C)CCOCCOCCOCCOc2cc(CN3CCC(Oc4ccnc5ccsc45)CC3)on2)CC1)C1CCCCC1 [Example 36, (S)-N-((S)-1-cyclohexyl-2-(4-(3,5-difluoro-1-(3-methyl-2-oxo-14-((5-((4-(thieno[3,2-b]pyridin-7-yloxy)piperidin-1-yl)methyl)isoxazol-3-yl)oxy)-6,9,12-trioxa-3-azatetradecyl)-1H-indole-2-carbonyl)piperazin-1-yl)-2-oxoethyl)-2-(methylamino)propanamide] |
| ≥ 75 | 300 to 1000 | 3 to 30 | CN[C@@H](C)C(=O)N[C@H](C(=O)N1CCN(C(=O)c2c(F)c3ccccc3n2CC(=O)N(C)CCOCCOCCOCCOc2cc(CN3CCC(Oc4ccnc5ccsc45)CC3)on2)CC1)C1CCCCC1 [Example 37, (S)-N-((S)-1-cyclohexyl-2-(4-(3-fluoro-1-(3-methyl-2-oxo-14-((5-((4-(thieno[3,2-b]pyridin-7-yloxy)piperidin-1-yl)methyl)isoxazol-3-yl)oxy)-6,9,12-trioxa-3-azatetradecyl)-1H-indole-2-carbonyl)piperazin-1-yl)-2-oxoethyl)-2-(methylamino)propanamide] |
| 25 to 50 | 300 to 1000 | 3 to 30 | CN[C@@H](C)C(=O)N[C@H](C(=O)N1CCN(C(=O)c2c(Cl)c3ccccc3n2CC(=O)N2CCC[C@H]2COc2cc(CN3CCC(Oc4ccnc5ccsc45)CC3)on2)CC1)C1CCCCC1 [Example 38, (S)-N-((S)-2-(4-(3-chloro-1-(2-oxo-2-((S)-2-(((5-((4-(thieno[3,2-b]pyridin-7-yloxy)piperidin-1-yl)methyl)isoxazol-3-yl)oxy)methyl)pyrrolidin-1-yl)ethyl)-1H-indole-2-carbonyl)piperazin-1-yl)-1-cyclohexyl-2-oxoethyl)-2-(methylamino)propanamide] |
| 25 to 50 | 300 to 1000 | 3 to 30 | CN[C@@H](C)C(=O)N[C@H](C(=O)N1CCN(C(=O)c2c(Cl)c3cc(F)ccc3n2CC(=O)N2CCC[C@H]2COc2cc(CN3CCC(Oc4ccnc5ccsc45)CC3)on2)CC1)C1CCCCC1 [Example 40, (S)-N-((S)-2-(4-(3-chloro-5-fluoro-1-(2-oxo-2-((S)-2-(((5-((4-(thieno[3,2-b]pyridin-7-yloxy)piperidin-1-yl)methyl)isoxazol-3-yl)oxy)methyl)pyrrolidin-1-yl)ethyl)-1H-indole-2-carbonyl)piperazin-1-yl)-1-cyclohexyl-2-oxoethyl)-2-(methylamino)propanamide] |

From patent US20220402935A1, “HETEROCYCLIC COMPOUND” (FIMECS, INC., priority 2019, published 2022)
